Source: PMC5956543, “Antimicrobial and antioxidant activities of triterpenoid and phenolic derivatives from two Cameroonian Melastomataceae plants: Dissotis senegambiensis and Amphiblemma monticola” (BMC Complementary and Alternative Medicine, 2018)
≈ marks a conversion by molar mass, not a printed value. Read-outs that look alike come from different tables or passages of the source.

Tests used:
S. aureus ATCC25923 = test: Broth microdilution antimicrobial assay (MIC/MMC); assay type: cell-based, Staphylococcus aureus; details: for MIC / MBC: Staphylococcus aureus, 24 h; for MIC: 37 °C; for MBC: no growth after sub-culturing
Protocol: (§1) The microorganisms used in this study include four bacterial (Staphylococcus aureus ATCC25923, methicillin sensitive S. aureus MSSA1, methicillin resistant S. aureus MRSA3 and methicillin resistant S. aureus MRSA4) and three yeast strains (Candida albicans ATCC10231, Candida tropicalis PK233 and Cryptococcus neoformans H99). These microorganisms were taken from our laboratory collection. The fungal and bacterial strains were grown at 37 °C and maintained on Sabouraud Dextrose Agar (SDA, Conda, Madrid, Spain) and nutrient agar (NA, Conda) slants respectively.
(§2) The inocula of bacteria and yeasts were prepared from overnight cultures as previously described. Absorbance was read spectrophotometrically at 530 nm and 600 nm for yeasts and bacteria respectively. The final concentrations of microbial suspensions were 2.5 × 10^5 cells/mL for yeasts and 10^6 CFU/mL for bacteria.
(§3) The antimicrobial activity was evaluated by determining the minimum inhibitory concentrations (MICs). MICs of extracts and compounds were determined by broth micro dilution. Each test sample was dissolved in 10% v/v aqueous dimethylsulfoxide (DMSO) to give a stock solution. This was serially diluted two-fold in Mueller-Hinton Broth (MHB) for bacteria and Sabouraud Dextrose Broth (SDB) for fungi to obtain a concentration range of 4096 to 0.25 μg/mL. Then, 100 μL of each sample concentration was added to respective wells (96-well micro plate) containing 90 μL of SDB/ MHB and 10 μL of inoculum to give final concentration ranges of 2048 to 4 μg/mL (for extracts) and 256 to 0.125 μg/mL (for compounds). Dilutions of nystatin (Sigma-Aldrich, Steinheim, Germany) and ciprofloxacin (Sigma-Aldrich, Steinheim, Germany) were used as positive controls for yeasts and bacteria respectively. Broth with 10 μL of DMSO was used as negative control. The cultured micro plates were covered; then, the contents of each well were mixed thoroughly using a plate shaker (Flow Laboratory, Germany) and incubated at 37 °C for 24 h (bacteria) and 48 h (yeasts) under shaking. After the incubation period, MICs were assessed visually and were taken as the lowest sample concentration at which there was no growth or virtually no growth. The lowest concentration that yielded no growth after the sub-culturing was considered as the minimum microbicidal concentrations (MMCs). All the tests were performed in triplicate.

S. aureus MRSA3 = test: Broth microdilution antimicrobial assay (MIC/MMC); assay type: cell-based, Staphylococcus aureus; details: S. aureus MRSA3; for MBC / MIC: Staphylococcus aureus, 24 h; for MBC: no growth after sub-culturing; for MIC: 37 °C
Protocol: as §1, §2, §3

S. aureus MRSA4 = test: Broth microdilution antimicrobial assay (MIC/MMC); assay type: cell-based, Staphylococcus aureus; details: S. aureus MRSA4; for MBC / MIC: Staphylococcus aureus, 24 h; for MBC: no growth after sub-culturing; for MIC: 37 °C
Protocol: as §1, §2, §3

S. aureus MSSA1 = test: Broth microdilution antimicrobial assay (MIC/MMC); assay type: cell-based, Staphylococcus aureus; details: for MIC / MBC: Staphylococcus aureus, 24 h; for MIC: 37 °C; for MBC: no growth after sub-culturing
Protocol: as §1, §2, §3

C. albicans ATCC10231 = test: Broth microdilution antimicrobial assay (MIC/MMC); assay type: cell-based, Candida albicans; details: for MIC: 37 °C, 48 h; for MMC: no growth after sub-culturing
Protocol: as §1, §2, §3

C. tropicalis PK233 = test: Broth microdilution antimicrobial assay (MIC/MMC); assay type: cell-based, Candida tropicalis; details: for MIC: 37 °C; for MIC / MFC: 48 h
Protocol: as §1, §2, §3

C. neoformans H99 = test: Broth microdilution antimicrobial assay (MIC/MMC); assay type: cell-based, Cryptococcus neoformans; details: for MIC: 37 °C; for MIC / MFC: 48 h
Protocol: as §1, §2, §3

[1] = Ferric reducing antioxidant power (FRAP) assay; details: Perl's Prussian blue at 700 nm; Fig. 2; BHT positive control
Protocol: The FRAP was determined by the Fe^3+-Fe^2+ transformation in the presence of extracts and compounds as previously described. The Fe^2+ was monitored by measuring the formation of Perl’s Prussian blue at 700 nm. Butylated hydroxytoluene (BHT) was used as a positive control. All the tests were performed in triplicate.

[2] = DPPH free radical scavenging assay; details: Fig. 3; vitamin C standard
Protocol: The free radical scavenging activity of extracts and compounds was evaluated according to described methods. The EC50 (μg/ml), which is the amount of sample necessary to inhibit by 50% the absorbance of free radical DPPH was calculated. Vitamin C was used as a standard control. All the analyses were carried out in triplicate.

[3] = Candida albicans, read-out: MIC
[4] = Candida tropicalis, read-out: MIC
[5] = Candida tropicalis, no growth after sub-culturing
[6] = Cryptococcus neoformans, read-out: MIC
[7] = Cryptococcus neoformans, no growth after sub-culturing

MIC (S. aureus ATCC25923)	MIC (S. aureus MRSA3)	MIC (S. aureus MRSA4)	MIC (S. aureus MSSA1)	MIC (C. albicans ATCC10231; [3])	MIC (C. tropicalis PK233; [4])	MIC (C. neoformans H99; [6])	SMILES	MBC (S. aureus ATCC25923)	MBC (S. aureus MRSA3)	MBC (S. aureus MRSA4)	MBC (S. aureus MSSA1)	MMC (C. albicans ATCC10231)	MFC (C. tropicalis PK233; [5])	MFC (C. neoformans H99; [7])	reducing power (FRAP, in words) [1]	DPPH radical-scavenging activity (in words) [2]	also measured
1 µg/mL (≈ 3.02 µM)	16 µg/mL (≈ 48.3 µM)	32 µg/mL (≈ 96.6 µM)	1 µg/mL (≈ 3.02 µM)				O=C(O)c1cn(C2CC2)c2cc(N3CCNCC3)c(F)cc2c1=O [Ciprofloxacin, reference compound]	1 µg/mL (≈ 3.02 µM)	16 µg/mL (≈ 48.3 µM)	32 µg/mL (≈ 96.6 µM)	1 µg/mL (≈ 3.02 µM)						MMC/MIC (S. aureus ATCC25923): 1; MMC/MIC (S. aureus MRSA3): 1; MMC/MIC (S. aureus MRSA4): 1; MMC/MIC (S. aureus MSSA1): 1
							C[C@@H]1[C@H](O)[C@@H](C)/C=C/C=C/CC/C=C/C=C/C=C/C=C/C(O[C@H]2O[C@H](C)[C@@H](O)[C@H](N)[C@@H]2O)CC2O[C@](O)(CC(O)C(O)CCC(O)CC(O)CC(O)CC(=O)O[C@H]1C)CC(O)C2C(=O)O (stereo partly drawn) [nystatin, reference compound]					2 µg/mL					MMC/MIC (C. albicans ATCC10231): 1; MIC (C. albicans ATCC10231): 2 µg/mL (≈ 2.16 µM); MMC/MIC (C. tropicalis PK233): 2; MIC (C. tropicalis PK233): 0.5 µg/mL (≈ 0.54 µM); MMC (C. tropicalis PK233; no growth after sub-culturing): 1 µg/mL; MMC/MIC (C. neoformans H99): 1; MIC (C. neoformans H99): 1 µg/mL (≈ 1.08 µM); MMC (C. neoformans H99; no growth after sub-culturing): 1 µg/mL
256 µg/mL (≈ 600 µM)	> 256 µg/mL	> 256 µg/mL	256 µg/mL (≈ 600 µM)	> 256 µg/mL	256 µg/mL (≈ 600 µM)	256 µg/mL (≈ 600 µM)	C=C(C)[C@@H]1CC[C@]2(C)CC[C@]3(C)[C@H](CC[C@@H]4[C@@]5(C)CC[C@H](O)C(C)(C)[C@@H]5CC[C@]43C)[C@@H]12 [Compound 9, lupeol]	> 256 µg/mL	> 256 µg/mL	> 256 µg/mL	> 256 µg/mL		> 256 µg/mL	> 256 µg/mL	not active	not active	
> 256 µg/mL	> 256 µg/mL	> 256 µg/mL	> 256 µg/mL	256 µg/mL (≈ 444 µM)	256 µg/mL (≈ 444 µM)	128 µg/mL (≈ 222 µM)	CC[C@H](CC[C@@H](C)[C@H]1CCC2C3CC=C4C[C@@H](O[C@@H]5O[C@H](CO)[C@@H](O)[C@H](O)[C@H]5O)CC[C@]4(C)C3CC[C@@]21C)C(C)C (stereo partly drawn) [Compound 4, sitosterol-3-O-β-D-glucopyranoside]	> 256 µg/mL	> 256 µg/mL	> 256 µg/mL	> 256 µg/mL	> 256 µg/mL	> 256 µg/mL	> 256 µg/mL	not active	not active	
							CC1(C)CC[C@]2(C(=O)O)CC[C@]3(C)C(=CC[C@@H]4[C@@]5(C)CC[C@H](O)C(C)(C)[C@@H]5CC[C@]43C)[C@@H]2C1 [Compound 13, oleanolic acid]								not active	not active	
